“Also recorded” adds a separate entry of the source.
Legend:
[1] = biological target: T1, galectin-1 (Homo sapiens, UniProt P09382); assay: Competitive fluorescence polarization assay, galectin-1; type: binding; conditions: mean ± SEM of n = 4–8
T1 construct: made in house
Description: (§1) 1. Competitive fluorescence polarization experiments:
(§2) Human galectins -1, -3, -4N, -4C, -7, -8N, -9N, and -9C were expressed and purified as previously described 30,41. Fluorescence polarisation experiments were performed using the PHERAstar FS plat e reader (software version 2.10 R3), and the fluorescence anisotropy of fluorescein tagged probes was measured by excitation at 485 nm and emission at 520 nm. The specific conditions for galectins -1, -3, -4N, -4C, -7, -8N, -9N, and -9C were kept as report ed30,41,42. The synthesised compounds were dissolved in pure DMSO at 20 mM concentration and diluted in PBS to 3-6 different concentrations, and each concentration was tested in duplicate. The highest inhibitor concentrations tested were 1.5 mM. The

[2] = biological target: T2, galectin-3 (Homo sapiens, UniProt P17931); assay: Competitive fluorescence polarization assay, galectin-3; type: binding; conditions: mean ± SEM of n = 4–8
T2 construct: made in house
T2 sequence (P17931 whole entry): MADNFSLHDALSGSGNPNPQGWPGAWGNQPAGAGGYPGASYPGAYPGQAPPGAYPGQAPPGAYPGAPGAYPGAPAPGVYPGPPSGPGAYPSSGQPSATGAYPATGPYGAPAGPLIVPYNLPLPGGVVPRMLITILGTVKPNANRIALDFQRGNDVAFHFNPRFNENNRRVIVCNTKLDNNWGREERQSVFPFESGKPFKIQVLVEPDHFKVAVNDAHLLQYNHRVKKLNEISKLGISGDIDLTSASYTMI
Description: as §1, §2

[3] = biological target: T3, galectin-4N (N-terminal domain) (Homo sapiens, UniProt P56470); assay: Competitive fluorescence polarization assay, galectin-4N; type: binding; conditions: mean ± SEM of n = 4–8
T3 construct: galectins (N = N-terminal domain, C = C-terminal domain); made in house
T3 sequence (P56470 19-150 limits assumed): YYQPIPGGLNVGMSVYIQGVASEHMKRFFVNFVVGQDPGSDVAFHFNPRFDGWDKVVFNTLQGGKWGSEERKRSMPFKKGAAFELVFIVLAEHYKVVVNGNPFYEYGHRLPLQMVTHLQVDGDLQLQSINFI
Description: as §1, §2

[4] = biological target: T4, galectin-8C (C-terminal domain) (Homo sapiens, UniProt O00214); assay: Competitive fluorescence polarization assay, galectin-8C; type: binding; conditions: mean ± SEM of n = 4–8
T4 construct: galectins (N = N-terminal domain, C = C-terminal domain)
T4 sequence (O00214 187-317 limits assumed): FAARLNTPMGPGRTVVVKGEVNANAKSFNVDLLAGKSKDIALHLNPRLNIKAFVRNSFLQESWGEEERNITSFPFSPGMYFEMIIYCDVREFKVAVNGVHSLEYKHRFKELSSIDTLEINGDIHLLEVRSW

[5] = biological target: T5, galectin-9C (C-terminal domain) (Homo sapiens, UniProt O00182); assay: Competitive fluorescence polarization assay, galectin-9C; type: binding; conditions: mean ± SEM of n = 4–8
T5 construct: galectins (N = N-terminal domain, C = C-terminal domain); made in house
T5 sequence (O00182 227-355 limits assumed): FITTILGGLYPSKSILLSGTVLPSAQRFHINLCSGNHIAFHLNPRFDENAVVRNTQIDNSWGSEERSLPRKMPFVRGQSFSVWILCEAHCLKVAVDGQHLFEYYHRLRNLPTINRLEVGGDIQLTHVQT
Description: as §1, §2

[6] = test system: K562 cancer cell line; assay: MTS metabolic activity (cytotoxicity) assay, K562; type: cell-based; conditions: concentrations 1 to 100 μM, 24 hours
Description: (§3) We have investigated the cytotoxicity of the compounds 1, 6a, and 6c via a (3-(4,5-dimethylthiazol-2-yl)-5-(3-carboxymethoxyphenyl)-2-(4-sulfophenyl)-2H-tetrazolium) (MTS) assay in K562 and MDA-MB-231 cancer cell lines to establish the direct antitumor activity of compounds, as well as human peripheral blood mononuclear cells (PBMCs), to evaluate their safety.
(§4) Metabolic activity assay:
(§5) The metabolic activities of the cell lines were determined using the CellTiter 96 Aqueous One Solution cell proliferation assay (MTS Reagents, Promega, Madison, WI, USA), according to the manufacturer instructions. Briefly, the cells were treated with the selected compounds in 0.1% dimethyl sulfoxide (DMSO; vehicle), 0.1% DMSO (control vehicle), or medium (control) and seeded at a cell density of 5,500 cells/well (MDA-MB-231 cells) or 4 x 10^4 cells/well (K562 cells), 7000 cells/well (HepG2 cells) or 1 x 10^5 cells/well (human PBMCs) in duplicates (MDA-MB-231, K562, and […]) or triplicates for HepG2 cells (100 µL), in sterile 96-well plates. For the MDA-MB-231 and HepG2, the cells were left to adhere overnight before adding the compounds. The plates were then incubated for 24 hours (48 hours for HepG2), after which 15 µL of MTS reagent was added to each well. After 30-90 minute of incubation, the absorbance was measured at 492 nm using a microplate reader (Synergy HTX Multi-Mode; BioTek Instruments, Inc., VT, USA). […]
(§6) Bead Array Human inflammatory cytokine Kit (content: IL-1, IL-6, IL-8, IL-10, IL-12p). The flow cytometric analyses were performed on an Attune NxT flow cytometer (Thermo Fisher Scientific, […]
(§7) Data are represented as means ± standard deviation (SD) from three representative independent experiments.
(§8) All experiments were performed at least twice, with average values expressed as means ± SD. All data were analyzed with the statistical software GraphPad Prism 8.0 (GraphPad Software, Inc., CA, USA). by one-way ANOVA followed with Dunnett’s multiple compar ison test. Differences were considered non-significant for p > 0.05, and significant (*) for p < 0.05. […]

[7] = test system: MDA-MB-231 cancer cell line; assay: MTS metabolic activity (cytotoxicity) assay, MDA-MB-231; type: cell-based, human; conditions: concentrations 1 to 100 μM, 24 hours
Description: as §3, §4, §5, §6, §7, §8

[8] = test system: human peripheral blood mononuclear cells (PBMCs); assay: MTS metabolic activity (cytotoxicity) assay, PBMCs; type: cell-based; conditions: concentrations up to 100 μM, 24 hours
Description: as §3, §4, §5, §6, §7, §8

T1 sequence (P09382 whole entry): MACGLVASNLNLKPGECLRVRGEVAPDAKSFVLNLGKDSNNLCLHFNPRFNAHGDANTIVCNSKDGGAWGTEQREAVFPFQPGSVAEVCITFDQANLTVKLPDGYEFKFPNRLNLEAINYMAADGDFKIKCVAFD

Kd [1]: 1300 ± 130 µM
Kd [2]: 690 ± 30 µM
Kd [3]: 1400 ± 30 µM
Kd [4]: 4000 ± 500 µM
Kd [5]: > 1500 µM
SMILES: Cn1c(CO[C@@H]2C=CO[C@H](CO)[C@@H]2O)nc2ccc(C(=O)O)cc21 [6a]
cell viability (MTS), K562 [6]: None of the compounds decreased the viability
cell viability (MTS), MDA-MB-231 [7]: None of the compounds decreased the viability; also recorded: no effect on the viability
direct cytotoxicity (MTS), PBMCs [8]: lack of direct cytotoxicity
